Measurements published in ChEMBL document CHEMBL2440063, “Fragment-based identification of a locus in the Sec7 domain of Arno for the design of protein-protein interaction inhibitors” (J Med Chem, 2013).
pKd, pKi: −log10 of the molar value. The source made the active and inactive calls. The calls are words filed in the database; no cut-off is given here.

Key:
[1] = target: T1, Cytohesin-2 (Homo sapiens) (UniProt Q99418); test: Binding affinity to human Arno Sec7 domain immobilized on CAP sensor chip at 1 mM after 15 mins by […]
T1 sequence (whole entry): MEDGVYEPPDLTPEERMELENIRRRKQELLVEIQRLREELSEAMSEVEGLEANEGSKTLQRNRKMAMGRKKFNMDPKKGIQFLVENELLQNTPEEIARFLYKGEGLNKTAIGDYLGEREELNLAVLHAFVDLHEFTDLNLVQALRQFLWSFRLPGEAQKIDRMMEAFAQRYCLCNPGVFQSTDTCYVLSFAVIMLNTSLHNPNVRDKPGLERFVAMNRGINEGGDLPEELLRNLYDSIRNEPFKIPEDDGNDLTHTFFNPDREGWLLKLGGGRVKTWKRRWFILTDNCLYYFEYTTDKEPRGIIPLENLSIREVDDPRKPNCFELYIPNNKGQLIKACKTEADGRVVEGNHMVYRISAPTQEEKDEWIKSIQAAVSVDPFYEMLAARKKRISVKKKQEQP

[2] = target: T1, Cytohesin-2 (Homo sapiens); test: Binding affinity to human Arno Sec7 domain immobilized on CAP sensor chip at 250 uM by surface plasmon resonance analysis
[3] = target: T1, Cytohesin-2 (Homo sapiens); test: Inhibition of human Arno Sec7 domain-mediated nucleotide exchange in delta17 Arf1 (17 to 181) at 2 mM by BODIPY-GTP based time resolved fluorescence assay relative to control
[4] = target: T1, Cytohesin-2 (Homo sapiens); test: Inhibition of human Alexa 488 labeled Arno Sec7 domain-mediated promiscuous aggregator activity in delta17 Arf1 (17 to 181) at 1 to 100 uM by fluorescence anisotropy assay
Cytohesin-2 [5] = target: T2, Cytohesin-2 (Homo sapiens, UniProt Q99418); test: Inhibition of human Arno Sec7 domain-mediated nucleotide exchange in delta17 Arf1 (17 to 181) by BODIPY-GTP based time resolved fluorescence assay; conditions: read-out: Ki(app)
T2 sequence (Q99418 whole entry): T1 sequence (whole entry)

[6] = target: T1, Cytohesin-2 (Homo sapiens); test: Inhibition of human Arno Sec7 domain-mediated nucleotide exchange in delta17 Arf1 (17 to 181) at 1 mM by BODIPY-GTP based time resolved fluorescence assay relative to control
[7] = target: T1, Cytohesin-2 (Homo sapiens); test: Inhibition of human Alexa 488 labeled Arno Sec7 domain-mediated promiscuous aggregator activity in delta17 Arf1 (17 to 181) at 100 uM by fluorescence anisotropy assay
[8] = target: T1, Cytohesin-2 (Homo sapiens); test: Inhibition of human Arno Sec7 domain […] delta17 Arf1 (17 to 181) at 1 mM after 15 mins by BODIPY-GTP based time resolved fluorescence assay relative to control
[9] = target: T1, Cytohesin-2 (Homo sapiens); test: Inhibition of human Alexa 488 labeled Arno Sec7 domain-mediated promiscuous aggregator activity in delta17 Arf1 (17 to 181) at >20 uM by fluorescence anisotropy assay
Cytohesin-2 [10] = target: T2, Cytohesin-2; test: Binding affinity to human Arno Sec7 domain immobilized on CAP sensor chip after 15 mins by […]

SMILES | Activity [1] | Activity [2] | inhibition [3] [%] | pKi (Cytohesin-2 [5]) | inhibition [6] [%] | also measured
Cc1ccc(C)c(-c2csc(N)n2)c1 | Active | Active | 22.6 | – | – | inhibition [4]: inactive
COc1cc(C(=O)Nc2c(C)cc(O)cc2C)cc(OC)c1OC | Active | – | 9.9 | – | – | –
Cc1cc(O)cc(C)c1NS(=O)(=O)c1ccc([N+](=O)[O-])cc1 | Active | – | – | 3.27 | 58.4 | –
CC(C)(C)c1ccc(C(=O)NCc2ccco2)cc1 | – | – | – | – | – | inhibition [7]: Active
O=S(=O)(Nc1ccccc1O)c1ccccc1 | inactive | – | – | – | 21.6 | –
Clc1ccccc1C(c1ccccc1)(c1ccccc1)n1ccnc1 | – | – | – | – | – | inhibition [9]: Active
Cc1cc(O)cc(C)c1NC(=O)c1cccc([N+](=O)[O-])c1 | Active | – | 16 | – | – | –
Cc1cc(C)c(S(=O)(=O)Nc2ccc(O)cc2C)c(C)c1 | – | – | – | 3.01 | 51.5 | –
CCN(CC)Cc1cc(NC(C)=O)ccc1O | inactive | Active | – | – | – | –
O=C1CNC(=O)N1C12CC3CC(CC(C3)C1)C2 | inactive | Active | – | – | – | –
Cc1cc(O)ccc1NS(=O)(=O)c1cccs1 | Active | Active | 16.4 | – | – | inhibition [4]: inactive
Cc1ccc(S(=O)(=O)Nc2cc(C)c(O)cc2C)cc1 | – | – | – | – | 66.7 | –
Cc1ccc(S(=O)(=O)Nc2c(C)cc(O)cc2C)cc1 | – | – | – | 2.72 | 32.7 | –

Now from value to compound, other results behind:

Activity [1] | Activity [2] | inhibition [3] [%] | pKi (Cytohesin-2 [5]) | inhibition [6] [%] | SMILES | also measured
– | – | 31.2 | 2.29 | – | Cc1cc(NS(=O)(=O)c2ccccc2)cc(C)c1O | –
Active | inactive | 37.9 | – | – | Cc1c(C(N)=O)sc(N)c1C(=O)OC(C)C | inhibition [4]: inactive
– | – | – | 2.79 | 32.1 | COc1ccc(S(=O)(=O)Nc2c(C)cc(O)cc2C)cc1 | inhibition [8]: 35%
– | – | 24.2 | – | – | Cc1c(O)ccc(NS(=O)(=O)c2ccccc2)c1C | –
Active | Active | 34.6 | 2.43 | – | Cc1cc(O)cc(C)c1NS(=O)(=O)c1ccccc1 | inhibition [4]: inactive; inhibition [8]: 30%; pKd (Cytohesin-2 [10]): 3.30
